Columns and labels:
Plasmodium berghei [1] = assay: Antimalarial activity Plasmodium berghei ANKA infected in C57BL/6J mouse assessed as mouse survival at 6 mg/kg, po administered as single dose combined with 18 mg/kg mefloquine hydrochloride; type: functional
Plasmodium berghei [2] = assay: Antimalarial activity Plasmodium berghei ANKA infected in C57BL/6J mouse assessed as suppression of parasitemia at 6 mg/kg, po administered as single dose combined with 18 mg/kg mefloquine hydrochloride measured on day 3 after innfection; type: functional
Plasmodium = assay: Antimalarial activity Plasmodium; type: functional
[3] = Lipophilicity, logP of the compound; type: physicochemical; details: octanol/water
[4] = Stability in pH 2 in acetonitrile and water at 37 degC; type: physicochemical; details: acetonitrile and water at pH 2, pH 2; read-out: Stability (converted)

SMILES	Survival (Plasmodium berghei [1])	Activity (Plasmodium berghei [2])	IC50 (Plasmodium)	logP ([3]; read-out: logP)	logP [3]	half-life [4]
C[C@H]1[C@@H](CC(CO)C[C@H]2O[C@@H]3O[C@@]4(C)CC[C@H]5[C@H](C)CC[C@@H]([C@H]2C)[C@@]35OO4)O[C@@H]2O[C@@]3(C)CC[C@H]4[C@H](C)CC[C@@H]1[C@@]24OO3 (stereo not given in full)	26 days	>99.9%				
C[C@H]1[C@@H](CC(COC(=O)c2ccncc2)C[C@H]2O[C@@H]3O[C@@]4(C)CC[C@H]5[C@H](C)CC[C@@H]([C@H]2C)[C@@]35OO4)O[C@@H]2O[C@@]3(C)CC[C@H]4[C@H](C)CC[C@@H]1[C@@]24OO3	24.3 days	>99.9%	1.7 nM	7.8		
C[C@H]1[C@@H](CC(COC(=O)c2ccnc(Cl)c2Cl)C[C@H]2O[C@@H]3O[C@@]4(C)CC[C@H]5[C@H](C)CC[C@@H]([C@H]2C)[C@@]35OO4)O[C@@H]2O[C@@]3(C)CC[C@H]4[C@H](C)CC[C@@H]1[C@@]24OO3	26 days	>99.9%			9.2	
C[C@H]1[C@@H](CC(COC(=O)c2cc(Cl)nc(Cl)c2)C[C@H]2O[C@@H]3O[C@@]4(C)CC[C@H]5[C@H](C)CC[C@@H]([C@H]2C)[C@@]35OO4)O[C@@H]2O[C@@]3(C)CC[C@H]4[C@H](C)CC[C@@H]1[C@@]24OO3	25.8 days	>99.9%			9.5	
Cc1cc(C(=O)OCC(C[C@H]2O[C@@H]3O[C@@]4(C)CC[C@H]5[C@H](C)CC[C@@H]([C@H]2C)[C@@]35OO4)C[C@H]2O[C@@H]3O[C@@]4(C)CC[C@H]5[C@H](C)CC[C@@H]([C@H]2C)[C@@]35OO4)cc(Cl)n1	28.5 days	>99.9%			9.5	
Cc1cc(C(=O)OCC(C[C@H]2O[C@@H]3O[C@@]4(C)CC[C@H]5[C@H](C)CC[C@@H]([C@H]2C)[C@@]35OO4)C[C@H]2O[C@@H]3O[C@@]4(C)CC[C@H]5[C@H](C)CC[C@@H]([C@H]2C)[C@@]35OO4)cc(C)n1	25.8 days	>99.9%		8.1		
C[C@H]1[C@@H](CC(COC(=O)c2cc(F)nc(F)c2)C[C@H]2O[C@@H]3O[C@@]4(C)CC[C@H]5[C@H](C)CC[C@@H]([C@H]2C)[C@@]35OO4)O[C@@H]2O[C@@]3(C)CC[C@H]4[C@H](C)CC[C@@H]1[C@@]24OO3	23.5 days	>99.9%		8.9		
C[C@H]1[C@@H](CC(COC(=O)c2cc(F)cc(F)c2)C[C@H]2O[C@@H]3O[C@@]4(C)CC[C@H]5[C@H](C)CC[C@@H]([C@H]2C)[C@@]35OO4)O[C@@H]2O[C@@]3(C)CC[C@H]4[C@H](C)CC[C@@H]1[C@@]24OO3	29 days	>99.9%			9.3	
C[C@H]1[C@@H](CC(COC(=O)c2cc(Cl)cc(Cl)c2)C[C@H]2O[C@@H]3O[C@@]4(C)CC[C@H]5[C@H](C)CC[C@@H]([C@H]2C)[C@@]35OO4)O[C@@H]2O[C@@]3(C)CC[C@H]4[C@H](C)CC[C@@H]1[C@@]24OO3	30 days	>99.9%			10.2	96 h
C[C@H]1[C@@H](CC(COC(=O)c2ccc(Cl)nc2Cl)C[C@H]2O[C@@H]3O[C@@]4(C)CC[C@H]5[C@H](C)CC[C@@H]([C@H]2C)[C@@]35OO4)O[C@@H]2O[C@@]3(C)CC[C@H]4[C@H](C)CC[C@@H]1[C@@]24OO3	30 days	>99.9%			9.5	96 h
CO[C@H]1O[C@@H]2O[C@@]3(C)CC[C@H]4[C@H](C)CC[C@@H]([C@H]1C)[C@@]24OO3 [ARTEMETHER]	20.8 days	>99.9%				
C[C@@H]1CC[C@H]2[C@@H](C)C(=O)O[C@@H]3O[C@@]4(C)CC[C@@H]1[C@]32OO4 [ARTEMISININ]			9 nM			

Source: ChEMBL document CHEMBL3352133, “Antimalarial chemotherapy: orally curative artemisinin-derived trioxane dimer esters” (Bioorg Med Chem Lett, 2015)
